# From US8936916B2, “Polypeptides for microbial detection” (3M Innovative Properties Company, priority 2008, dated 2015)
# Ends that are not written are not given here. * marks the point of attachment. Myristoyl = CCCCCCCCCCCCCC(=O)*
# Assay: Permeabilization of DPPC liposomes containing glucose oxidase by phosphorylated dermatoxin (absorbance at 538 nm)
# Assay type: biochemical
# Experimental: DPPC liposomes containing 5 mg/mL glucose oxidase were prepared as described in Example 2. Glucose oxidase activity was measured in a coupled enzyme reaction with horseradish peroxidase as described in Example 2. The various solutions were quickly added to each of the wells of a microplate using a multichannel pipette and the reactions were started (at T=0 hours) with the addition to the wells of a solution containing glucose and 4-AAP.
# The ability of the phosphorylated dermatoxin to open liposomes in the presence of phosphatase was tested by preparing a developing solution as described in Example 2. One hundred-fifty microliters of the developing solution was placed in each well of a 96-well microplate. To each column in the plate was added 20 μL of TES buffer containing one of the following concentrations of unpurified dermatoxin: 3.3 mg/mL, 3.3×10^−1 mg/mL, 3.3×10^−2 mg/mL, 3.3×10^−3 mg/mL, 3.3×10^−4 mg/mL, 3.3×10^−5 mg/mL, 3.3×10^−6 mg/mL, or 3.3×10^−7 mg/mL. Negative control wells contained TES buffer with no dermatoxin. Positive control wells buffer contained TES buffer with Triton X-100. Ten-microliter aliquots of the following concentrations of DPPC liposomes (containing 5 mg/mL glucose oxidase) were added to wells in duplicate rows: 0.1 mg lipid/mL, 0.02 mg lipid/mL, 0.004 mg lipid/mL, or plain buffer. To one of the duplicate rows was added 20 μL of 2.5 mg/mL alkaline phosphatase in TES. The other duplicate row received 20 μL of TES buffer. Thus the final dermatoxin concentration in the well varied from […], and the final lipid concentration in the well ranged from 0.005 mg lipid/mL to 2.0×10^−4 mg lipid/mL.
# The absorbance was recorded at 538 nm on a SpectraMax M5 plate reader (Molecular Devices, Sunnyvale, Calif.) after two hours incubation at room temperature, and also after overnight incubation (approximately 18 hours). Since the absorbance of several wells was saturated, the overnight samples were diluted 1:10 with 50 mmol TES and the absorbance of the diluted samples was measured.
sequence,measurement,setting,value
"SLGSFLKGVGTTLASVGKVVSDQFGKLLQAGQ (Myristoyl-SLGSFLKGVGTTLASVGKVVSDQFGKLLQAGQ; also: phosphorylated) [phosphorylated dermatoxin, fully phosphorylated dermatoxin, unpurified crude preparation]",Absorbance at 538 nm (cytolytic peptide activity),"18 hrs (d), 1:10-diluted sample, lipid conc. 0.004, dermatoxin mass 3.3 × 10^−9 mg, without phosphatase",0.054 absorbance units
same,Absorbance at 538 nm (cytolytic peptide activity),"18 hrs (d), 1:10-diluted sample, lipid conc. 0.02, dermatoxin mass 3.3 × 10^−5 mg, with phosphatase",0.262 absorbance units
same,Absorbance at 538 nm (cytolytic peptide activity),"18 hrs (d), 1:10-diluted sample, lipid conc. 0.02, dermatoxin mass 3.3 × 10^−5 mg, without phosphatase",0.247 absorbance units
same,Absorbance at 538 nm (cytolytic peptide activity),"18 hrs (d), 1:10-diluted sample, lipid conc. 0.02, dermatoxin mass 3.3 × 10^−6 mg, with phosphatase",0.231 absorbance units
same,Absorbance at 538 nm (cytolytic peptide activity),"18 hrs (d), 1:10-diluted sample, lipid conc. 0.02, dermatoxin mass 3.3 × 10^−6 mg, without phosphatase",0.145 absorbance units
same,Absorbance at 538 nm (cytolytic peptide activity),"18 hrs (d), 1:10-diluted sample, lipid conc. 0.02, dermatoxin mass 3.3 × 10^−7 mg, with phosphatase",0.084 absorbance units
same,Absorbance at 538 nm (cytolytic peptide activity),"18 hrs (d), 1:10-diluted sample, lipid conc. 0.02, dermatoxin mass 3.3 × 10^−7 mg, without phosphatase",0.072 absorbance units
same,Absorbance at 538 nm (cytolytic peptide activity),"18 hrs (d), 1:10-diluted sample, lipid conc. 0.02, dermatoxin mass 3.3 × 10^−8 mg, with phosphatase",0.075 absorbance units
same,Absorbance at 538 nm (cytolytic peptide activity),"18 hrs (d), 1:10-diluted sample, lipid conc. 0.02, dermatoxin mass 3.3 × 10^−8 mg, without phosphatase",0.054 absorbance units
same,Absorbance at 538 nm (cytolytic peptide activity),"18 hrs (d), 1:10-diluted sample, lipid conc. 0.02, dermatoxin mass 3.3 × 10^−9 mg, with phosphatase",0.072 absorbance units
same,Absorbance at 538 nm (cytolytic peptide activity),"18 hrs (d), 1:10-diluted sample, lipid conc. 0.02, dermatoxin mass 3.3 × 10^−9 mg, without phosphatase",0.054 absorbance units
same,Absorbance at 538 nm (cytolytic peptide activity),"18 hrs (d), 1:10-diluted sample, lipid conc. 0.1, dermatoxin mass 3.3 × 10^−5 mg, with phosphatase",1.045 absorbance units
same,Absorbance at 538 nm (cytolytic peptide activity),"18 hrs (d), 1:10-diluted sample, lipid conc. 0.1, dermatoxin mass 3.3 × 10^−5 mg, without phosphatase",0.846 absorbance units
same,Absorbance at 538 nm (cytolytic peptide activity),"18 hrs (d), 1:10-diluted sample, lipid conc. 0.1, dermatoxin mass 3.3 × 10^−6 mg, with phosphatase",0.785 absorbance units
same,Absorbance at 538 nm (cytolytic peptide activity),"18 hrs (d), 1:10-diluted sample, lipid conc. 0.1, dermatoxin mass 3.3 × 10^−6 mg, without phosphatase",0.413 absorbance units
same,Absorbance at 538 nm (cytolytic peptide activity),"18 hrs (d), 1:10-diluted sample, lipid conc. 0.1, dermatoxin mass 3.3 × 10^−7 mg, with phosphatase",0.095 absorbance units
same,Absorbance at 538 nm (cytolytic peptide activity),"18 hrs (d), 1:10-diluted sample, lipid conc. 0.1, dermatoxin mass 3.3 × 10^−7 mg, without phosphatase",0.145 absorbance units
same,Absorbance at 538 nm (cytolytic peptide activity),"18 hrs (d), 1:10-diluted sample, lipid conc. 0.1, dermatoxin mass 3.3 × 10^−8 mg, with phosphatase",0.076 absorbance units
same,Absorbance at 538 nm (cytolytic peptide activity),"18 hrs (d), 1:10-diluted sample, lipid conc. 0.1, dermatoxin mass 3.3 × 10^−8 mg, without phosphatase",0.060 absorbance units
same,Absorbance at 538 nm (cytolytic peptide activity),"18 hrs (d), 1:10-diluted sample, lipid conc. 0.1, dermatoxin mass 3.3 × 10^−9 mg, with phosphatase",0.075 absorbance units
same,Absorbance at 538 nm (cytolytic peptide activity),"18 hrs (d), 1:10-diluted sample, lipid conc. 0.1, dermatoxin mass 3.3 × 10^−9 mg, without phosphatase",0.058 absorbance units
same,Absorbance at 538 nm (cytolytic peptide activity),"18 hrs, lipid conc. 0, dermatoxin mass 3.3 × 10^−5 mg, with phosphatase",0.153 absorbance units
same,Absorbance at 538 nm (cytolytic peptide activity),"18 hrs, lipid conc. 0, dermatoxin mass 3.3 × 10^−5 mg, without phosphatase",0.147 absorbance units
same,Absorbance at 538 nm (cytolytic peptide activity),"18 hrs, lipid conc. 0, dermatoxin mass 3.3 × 10^−6 mg, with phosphatase",0.149 absorbance units
same,Absorbance at 538 nm (cytolytic peptide activity),"18 hrs, lipid conc. 0, dermatoxin mass 3.3 × 10^−6 mg, without phosphatase",0.139 absorbance units
same,Absorbance at 538 nm (cytolytic peptide activity),"18 hrs, lipid conc. 0, dermatoxin mass 3.3 × 10^−7 mg, with phosphatase",0.148 absorbance units
same,Absorbance at 538 nm (cytolytic peptide activity),"18 hrs, lipid conc. 0, dermatoxin mass 3.3 × 10^−7 mg, without phosphatase",0.132 absorbance units
same,Absorbance at 538 nm (cytolytic peptide activity),"18 hrs, lipid conc. 0, dermatoxin mass 3.3 × 10^−8 mg, with phosphatase",0.149 absorbance units
same,Absorbance at 538 nm (cytolytic peptide activity),"18 hrs, lipid conc. 0, dermatoxin mass 3.3 × 10^−8 mg, without phosphatase",0.131 absorbance units
same,Absorbance at 538 nm (cytolytic peptide activity),"18 hrs, lipid conc. 0, dermatoxin mass 3.3 × 10^−9 mg, with phosphatase",0.150 absorbance units
same,Absorbance at 538 nm (cytolytic peptide activity),"18 hrs, lipid conc. 0, dermatoxin mass 3.3 × 10^−9 mg, without phosphatase",0.133 absorbance units
same,Absorbance at 538 nm (cytolytic peptide activity),"18 hrs, lipid conc. 0.004, dermatoxin mass 3.3 × 10^−5 mg, with phosphatase",0.494 absorbance units
same,Absorbance at 538 nm (cytolytic peptide activity),"18 hrs, lipid conc. 0.004, dermatoxin mass 3.3 × 10^−5 mg, without phosphatase",0.499 absorbance units
same,Absorbance at 538 nm (cytolytic peptide activity),"18 hrs, lipid conc. 0.004, dermatoxin mass 3.3 × 10^−6 mg, with phosphatase",0.494 absorbance units
same,Absorbance at 538 nm (cytolytic peptide activity),"18 hrs, lipid conc. 0.004, dermatoxin mass 3.3 × 10^−6 mg, without phosphatase",0.410 absorbance units
same,Absorbance at 538 nm (cytolytic peptide activity),"18 hrs, lipid conc. 0.004, dermatoxin mass 3.3 × 10^−7 mg, with phosphatase",0.287 absorbance units
same,Absorbance at 538 nm (cytolytic peptide activity),"18 hrs, lipid conc. 0.004, dermatoxin mass 3.3 × 10^−7 mg, without phosphatase",0.169 absorbance units
same,Absorbance at 538 nm (cytolytic peptide activity),"18 hrs, lipid conc. 0.004, dermatoxin mass 3.3 × 10^−8 mg, with phosphatase",0.240 absorbance units
same,Absorbance at 538 nm (cytolytic peptide activity),"18 hrs, lipid conc. 0.004, dermatoxin mass 3.3 × 10^−8 mg, without phosphatase",0.141 absorbance units
same,Absorbance at 538 nm (cytolytic peptide activity),"18 hrs, lipid conc. 0.004, dermatoxin mass 3.3 × 10^−9 mg, with phosphatase",0.243 absorbance units
same,Absorbance at 538 nm (cytolytic peptide activity),"18 hrs, lipid conc. 0.004, dermatoxin mass 3.3 × 10^−9 mg, without phosphatase",0.139 absorbance units
same,Absorbance at 538 nm (cytolytic peptide activity),"18 hrs, lipid conc. 0.02, dermatoxin mass 3.3 × 10^−5 mg, with phosphatase",2.003 absorbance units
same,Absorbance at 538 nm (cytolytic peptide activity),"18 hrs, lipid conc. 0.02, dermatoxin mass 3.3 × 10^−5 mg, without phosphatase",1.833 absorbance units
same,Absorbance at 538 nm (cytolytic peptide activity),"18 hrs, lipid conc. 0.02, dermatoxin mass 3.3 × 10^−6 mg, with phosphatase",1.856 absorbance units
same,Absorbance at 538 nm (cytolytic peptide activity),"18 hrs, lipid conc. 0.02, dermatoxin mass 3.3 × 10^−6 mg, without phosphatase",1.013 absorbance units
same,Absorbance at 538 nm (cytolytic peptide activity),"18 hrs, lipid conc. 0.02, dermatoxin mass 3.3 × 10^−7 mg, with phosphatase",0.469 absorbance units
same,Absorbance at 538 nm (cytolytic peptide activity),"18 hrs, lipid conc. 0.02, dermatoxin mass 3.3 × 10^−7 mg, without phosphatase",0.315 absorbance units
same,Absorbance at 538 nm (cytolytic peptide activity),"18 hrs, lipid conc. 0.02, dermatoxin mass 3.3 × 10^−8 mg, with phosphatase",0.357 absorbance units
same,Absorbance at 538 nm (cytolytic peptide activity),"18 hrs, lipid conc. 0.02, dermatoxin mass 3.3 × 10^−8 mg, without phosphatase",0.149 absorbance units
same,Absorbance at 538 nm (cytolytic peptide activity),"18 hrs, lipid conc. 0.02, dermatoxin mass 3.3 × 10^−9 mg, with phosphatase",0.336 absorbance units
same,Absorbance at 538 nm (cytolytic peptide activity),"18 hrs, lipid conc. 0.02, dermatoxin mass 3.3 × 10^−9 mg, without phosphatase",0.143 absorbance units
same,Absorbance at 538 nm (cytolytic peptide activity),"18 hrs, lipid conc. 0.1, dermatoxin mass 3.3 × 10^−5 mg, without phosphatase",3.720 absorbance units
same,Absorbance at 538 nm (cytolytic peptide activity),"18 hrs, lipid conc. 0.1, dermatoxin mass 3.3 × 10^−6 mg, without phosphatase",3.294 absorbance units
same,Absorbance at 538 nm (cytolytic peptide activity),"18 hrs, lipid conc. 0.1, dermatoxin mass 3.3 × 10^−7 mg, with phosphatase",0.530 absorbance units
same,Absorbance at 538 nm (cytolytic peptide activity),"18 hrs, lipid conc. 0.1, dermatoxin mass 3.3 × 10^−7 mg, without phosphatase",0.974 absorbance units
same,Absorbance at 538 nm (cytolytic peptide activity),"18 hrs, lipid conc. 0.1, dermatoxin mass 3.3 × 10^−8 mg, with phosphatase",0.349 absorbance units
same,Absorbance at 538 nm (cytolytic peptide activity),"18 hrs, lipid conc. 0.1, dermatoxin mass 3.3 × 10^−8 mg, without phosphatase",0.200 absorbance units
same,Absorbance at 538 nm (cytolytic peptide activity),"18 hrs, lipid conc. 0.1, dermatoxin mass 3.3 × 10^−9 mg, with phosphatase",0.358 absorbance units
same,Absorbance at 538 nm (cytolytic peptide activity),"18 hrs, lipid conc. 0.1, dermatoxin mass 3.3 × 10^−9 mg, without phosphatase",0.177 absorbance units
same,Permeabilization of the liposomes in the presence versus absence of phosphatase,all wells except the highest concentration of the crude preparation,more permeabilization
